Measurements from ChEMBL document CHEMBL1799925, “Inhibition of sphingosine 1-phosphate lyase for the treatment of rheumatoid arthritis: discovery of (E)-1-(4-((1R,2S,3R)-1,2,3,4-tetrahydroxybutyl)-1H-imidazol-2-yl)ethanone oxime (LX2931) and (1R,2S,3R)-1-(2-(isoxazol-3-yl)-1H-imidazol-4-yl)butane-1,2,3,4-tetraol (LX2932)” (J Med Chem, 2010).
Calls of active or inactive are those of the source. The calls are words filed in the database; no cut-off is given here.

Experiments:
Format in all cases: functional, organism-based
Mus musculus [1] = test: Antiarthritic activity in […] collagen-induced arthritic mouse assessed as decrease in exudate formation at 100 mg/kg, po administered qd one started one day before collagen challenge; design: dose 100 mg/kg
Mus musculus [2] = test: Antiarthritic activity in […] collagen-induced arthritis in mouse assessed as decrease in clinical scores at 5 mg/kg, po administered qd on day 20 after collagen challenge by ELISA; design: dose 5 mg/kg
Mus musculus [3] = test: Effect on serum anti-CII antibody levels in type 2 collagen-induced arthritis in mouse at 30 mg/kg, po administered qd on day 20 after collagen challenge by ELISA; design: dose 30 mg/kg
Mus musculus [4] = test: Antiarthritic activity in […] collagen-induced arthritis in mouse assessed as decrease in joint swelling at 5 mg/kg, po administered qd on day 20 after collagen challenge by ELISA; design: dose 5 mg/kg
Mus musculus [5] = test: Antiarthritic activity in […] collagen-induced arthritic mouse assessed as decrease in inflammation at 100 mg/kg, po administered qd one started one day before collagen challenge; design: dose 100 mg/kg
Rattus norvegicus [6] = test: Immunomodulatory activity in Sprague-Dawley rat spleen assessed as reduction in peripheral blood lymphocyte level at 30 mg/kg, po administered daily for 3 days measured after 18 hrs by CBC analysis; design: dose 30 mg/kg
Mus musculus [7] = test: Antiarthritic activity in […] collagen-induced arthritis in mouse assessed as decrease in joint swelling at 30 mg/kg, po administered qd on day 20 after collagen challenge by ELISA; design: dose 30 mg/kg
Mus musculus [8] = test: Antiarthritic activity in […] collagen-induced arthritic mouse assessed as increase in CD8-positive cells in thymus at 100 mg/kg, po qd administered one day before collagen challenge; design: dose 100 mg/kg
Rattus norvegicus [9] = test: Immunomodulatory activity in Sprague-Dawley rat lymph node assessed as reduction in peripheral blood lymphocyte level at 30 mg/kg, po administered daily for 3 days measured after 18 hrs by CBC analysis; design: dose 30 mg/kg
Rattus norvegicus [10] = test: Immunomodulatory activity in Sprague-Dawley rat liver assessed as reduction in peripheral blood lymphocyte level at 30 mg/kg, po administered daily for 3 days measured after 18 hrs by CBC analysis; design: dose 30 mg/kg
Mus musculus [11] = test: Immunomodulatory activity in mouse assessed as induction of lymphopenia at 5 to 10 mg/kg, po administered as single dose measured after 18 hrs
Mus musculus [12] = test: Antiarthritic activity in […] collagen-induced arthritic mouse assessed as decrease in erosion at 100 mg/kg, po administered qd one started one day before collagen challenge; design: dose 100 mg/kg
Rattus norvegicus [13] = test: Immunomodulatory activity in Sprague-Dawley rat lung assessed as reduction in peripheral blood lymphocyte level at 30 mg/kg, po administered daily for 3 days measured after 18 hrs by CBC analysis; design: dose 30 mg/kg
Mus musculus [14] = test: Antiarthritic activity in […] collagen-induced arthritic mouse assessed as decrease in arthritic score at 100 mg/kg, po administered qd one started one day before collagen challenge; design: dose 100 mg/kg
Rattus norvegicus [15] = test: Immunomodulatory activity in Sprague-Dawley rat jejunum assessed as reduction in peripheral blood lymphocyte level at 30 mg/kg, po administered daily for 3 days measured after 18 hrs by CBC analysis; design: dose 30 mg/kg
Mus musculus [16] = test: Antiarthritic activity in […] collagen-induced arthritis in mouse assessed as decrease in clinical scores at 30 mg/kg, po administered qd on day 20 after collagen challenge by ELISA; design: dose 30 mg/kg
Mus musculus [17] = test: Antiarthritic activity in […] collagen-induced arthritic mouse assessed as delay in onset of collagen-induced arthritis at 100 mg/kg, po administered qd one started one day before collagen challenge; design: dose 100 mg/kg
Rattus norvegicus [18] = test: Immunomodulatory activity in Sprague-Dawley rat kidney assessed as reduction in peripheral blood lymphocyte level at 30 mg/kg, po administered daily for 3 days measured after 18 hrs by CBC analysis; design: dose 30 mg/kg
Mus musculus [19] = test: Antiarthritic activity in […] collagen-induced arthritic mouse assessed as decrease in synovial hyperplasia at 100 mg/kg, po administered qd one started one day before collagen challenge; design: dose 100 mg/kg
Rattus norvegicus [20] = test: Increase in S1P level in Sprague-Dawley rat eye at 30 mg/kg, po administered daily for 3 days measured after 18 hrs […]; design: dose 30 mg/kg
Rattus norvegicus [21] = test: Increase in S1P level Sprague-Dawley rat heart at 30 mg/kg, po administered daily for 3 days measured after 18 hrs […]; design: dose 30 mg/kg
Rattus norvegicus [22] = test: Immunomodulatory activity in Sprague-Dawley rat heart assessed as reduction in peripheral blood lymphocyte level at 30 mg/kg, po administered daily for 3 days measured after 18 hrs by CBC analysis; design: dose 30 mg/kg
Rattus norvegicus [23] = test: Immunomodulatory activity in Sprague-Dawley rat eye assessed as reduction in peripheral blood lymphocyte level at 30 mg/kg, po administered daily for 3 days measured after 18 hrs by CBC analysis; design: dose 30 mg/kg
Rattus norvegicus [24] = test: Immunomodulatory activity in Sprague-Dawley rat thymus assessed as reduction in peripheral blood lymphocyte level at 30 mg/kg, po administered daily for 3 days measured after 18 hrs by CBC analysis; design: dose 30 mg/kg
Mus musculus [25] = test: Antiarthritic activity in […] collagen-induced arthritic mouse assessed as increase in CD4-positive cells in thymus at 100 mg/kg, po qd administered one day before collagen challenge; design: dose 100 mg/kg
Mus musculus [26] = test: Antiarthritic activity in […] collagen-induced arthritic mouse assessed as decrease in joint swelling at 100 mg/kg, po administered qd one started one day before collagen challenge; design: dose 100 mg/kg

Question: For `C/C(=N\O)c1ncc([C@@H](O)[C@H](O)[C@H](O)CO)[nH]1`, which Activity (Mus musculus [1]) is on record?
Answer: Active

Question: And the Activity (Mus musculus [2])?
Answer: Active

Question: What about the Activity (Mus musculus [3]) of the same compound?
Answer: inactive

Question: What about the Activity (Mus musculus [4]) of the same compound?
Answer: Active

Question: And the Activity (Mus musculus [5])?
Answer: Active

Question: What about the Activity (Rattus norvegicus [6]) of the same compound?
Answer: Active

Question: What about the Activity (Mus musculus [7]) of the same compound?
Answer: Active

Question: And the Activity (Mus musculus [8])?
Answer: Active

Question: And the Activity (Rattus norvegicus [9])?
Answer: Active

Question: What about the Activity (Rattus norvegicus [10]) of the same compound?
Answer: Active

Question: What about the Activity (Mus musculus [11]) of the same compound?
Answer: inactive

Question: And the Activity (Mus musculus [12])?
Answer: Active

Question: And the Activity (Rattus norvegicus [13])?
Answer: Active

Question: What about the Activity (Mus musculus [14]) of the same compound?
Answer: Active

Question: What about the Activity (Rattus norvegicus [15]) of the same compound?
Answer: Active

Question: And the Activity (Mus musculus [16])?
Answer: Active

Question: What about the Activity (Mus musculus [17]) of the same compound?
Answer: Active

Question: What about the Activity (Rattus norvegicus [18]) of the same compound?
Answer: Active

Question: What about the Activity (Mus musculus [19]) of the same compound?
Answer: Active

Question: What about the Activity (Rattus norvegicus [20]) of the same compound?
Answer: inactive

Question: What about the Activity (Rattus norvegicus [21]) of the same compound?
Answer: inactive

Question: What about the Activity (Rattus norvegicus [22]) of the same compound?
Answer: Active

Question: What about the Activity (Rattus norvegicus [23]) of the same compound?
Answer: Active

Question: And the Activity (Rattus norvegicus [24])?
Answer: Active

Question: And the Activity (Mus musculus [25])?
Answer: Active

Question: What about the Activity (Mus musculus [26]) of the same compound?
Answer: Active
